Results on 1 substance are retold here after patent US20250154219A1, “PEPTIDE ANALOGS” (Adepthera LLC, priority 2017, published 2025).

Holding throughout (assay type): cell-based
In one experiment the target is CLR/RAMP1 receptor (Homo sapiens, UniProt O60894+Q16602). The experiment can be described thus: CLR/RAMP1 cAMP receptor-activation assay (agonist mode).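 Note: Dose–response over 10 threefold dilutions from 1.0 µM, run in duplicate, luminescent cAMP detection (RLU), activity scaled between vehicle control (0%) and maximal control (100%).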 The conditions noted are these: agonist mode; positive control β-CGRP.
In a further experiment the target is CLR/RAMP2 receptor (Homo sapiens, UniProt O60895+Q16602). Briefly: CLR/RAMP2 arrestin receptor-activation assay (agonist mode).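 Note: agonist dose-response in recombinant cell lines stably expressing each receptor complex, duplicate wells over 10 threefold dilutions from a top concentration of 1.0 µM.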 The settings on record: agonist mode; positive control ADM.
The target of experiment [1] is T1, type 1 angiotensin II receptor AGTR1 (Homo sapiens, UniProt P30556).
T1 sequence (P30556 1-359): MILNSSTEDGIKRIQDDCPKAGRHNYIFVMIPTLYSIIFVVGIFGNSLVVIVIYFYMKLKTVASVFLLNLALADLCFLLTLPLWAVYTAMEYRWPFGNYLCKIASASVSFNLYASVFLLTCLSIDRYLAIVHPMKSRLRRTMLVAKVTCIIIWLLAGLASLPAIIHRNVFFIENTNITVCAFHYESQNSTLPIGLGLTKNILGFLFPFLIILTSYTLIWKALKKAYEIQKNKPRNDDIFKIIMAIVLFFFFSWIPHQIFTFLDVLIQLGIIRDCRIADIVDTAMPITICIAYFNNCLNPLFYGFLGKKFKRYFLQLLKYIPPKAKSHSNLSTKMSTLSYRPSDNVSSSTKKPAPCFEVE
Briefly: AGTR1 calcium flux assay, antagonist mode. Background: Calcium flux is commonly read through the fluorescence of an indicator in the cells.
Description: The antagonistic activities toward BDKRB1 and AGTR1 were assayed with a BDKRB1 calcium flux assay and an AGTR1 calcium flux assay (Discoverx Inc.), respectively.
For antagonist determination, cells were pre-incubated with sample followed by agonist challenge at the EC80 concentration. Intermediate dilution of sample stocks was performed to generate 3× sample in assay buffer. After dye loading, cells were removed from the incubator and 10 μL 3× sample was added. Cells were incubated for 30 minutes at room temperature in the dark to equilibrate plate temperature. […] Compound antagonistic activity was measured on a FLIPR Tetra (MDS), and calcium mobilization was monitored for 2 minutes and 10 μL EC80 agonist in HBSS/20 mM Hepes was added to the cells 5 seconds into the assay.
For antagonist assays, percentage inhibition is calculated using the following formula: % Inhibition=100%×(1−(mean RFU of test sample−mean RFU of vehicle control)/(mean RFU of EC80 control−mean RFU of vehicle control)).

CLR/RAMP2 receptor, sequence (Q16602 23-461): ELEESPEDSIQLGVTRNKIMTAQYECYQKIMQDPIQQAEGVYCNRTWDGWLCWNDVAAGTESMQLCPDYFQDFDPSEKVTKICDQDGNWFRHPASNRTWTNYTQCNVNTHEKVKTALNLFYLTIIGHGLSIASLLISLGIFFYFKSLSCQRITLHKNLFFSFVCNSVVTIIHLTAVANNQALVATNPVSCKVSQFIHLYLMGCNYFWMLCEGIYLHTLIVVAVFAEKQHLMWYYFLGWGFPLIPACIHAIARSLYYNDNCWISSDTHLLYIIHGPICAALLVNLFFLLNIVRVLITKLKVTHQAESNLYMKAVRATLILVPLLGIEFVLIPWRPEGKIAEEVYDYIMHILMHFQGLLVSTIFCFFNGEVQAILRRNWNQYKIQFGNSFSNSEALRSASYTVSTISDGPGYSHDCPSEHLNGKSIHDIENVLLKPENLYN
CLR/RAMP2 receptor, sequence (O60895 43-175): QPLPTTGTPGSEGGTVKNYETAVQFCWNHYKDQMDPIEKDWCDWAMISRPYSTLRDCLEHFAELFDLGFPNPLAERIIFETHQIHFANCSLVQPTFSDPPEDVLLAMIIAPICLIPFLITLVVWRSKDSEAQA
CLR/RAMP1 receptor, sequence (Q16602 23-461): as the sequence (Q16602 23-461) above
CLR/RAMP1 receptor, sequence (O60894 27-148): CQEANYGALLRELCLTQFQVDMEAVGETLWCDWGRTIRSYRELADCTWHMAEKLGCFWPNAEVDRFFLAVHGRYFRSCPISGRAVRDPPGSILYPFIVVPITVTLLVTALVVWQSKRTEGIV
Description for CLR/RAMP1 receptor: (§1) Using a receptor activation assay, the dose-dependent stimulatory response of peptide agonists on a CLR/RAMP1 receptor, a CLR/RAMP2, or a CLR/RAMP3 receptor complex was determined. A cell line carrying the recombinant CLR/RAMP1, CLR/RAMP2, or a CLR/RAMP3 receptor was employed in the assay. Peptide agonist activities were tested, in duplicate, at 10 different concentrations, starting with 1.0 μM and serially diluted 3-fold, in DMSO. […] The CLR/RAMP1 CAMP, CLR/RAMP2 arrestin, and CLR/RAMP3 CAMP assays (DiscoveRx, Fremont, Calif.) were used.
(§2) The pharmacology of superagonistic activity of synthetic analogs was studied in cells that stably express CLR/RAMP1 (1321N1 cells), CLR/RAMP2 (CHO-K1 cells), or CLR/RAMP3 (CHO-K1 cells) receptors.
For the analysis of Gs-coupled CAMP production, cAMP Hunter cell lines were expanded from freezer stocks, and cells were seeded in a total volume of 20 μL into white walled, 384-well microplates and incubated at 37 C for the appropriate time prior to testing. The CAMP modulation was determined using the DiscoverX HitHunter CAMP XS+ assay. For agonistic activity determination, cells were incubated with sample to induce response. Media was aspirated from cells and replaced with 15 μL 2:1 HBSS/10 mM Hepes: CAMP XS+Ab reagent. […] For Gs-coupled agonistic assays, percentage activity is calculated using the following formula: % Activity=100%×(mean RLU of test sample−mean RLU of vehicle control)/(mean RLU of MAX control−mean RLU of vehicle control).
Description for CLR/RAMP2 receptor: as §1, §2
For the Arrestin assays, PathHunter cell lines (Discoverx Inc.) were expanded from freezer stocks, and seeded in a total volume of 20 μL into white walled, 384-well microplates and incubated at 37 C for the appropriate time prior to testing. For agonist determination, cells were incubated with sample to induce response. […] The microplates were read following signal generation with a PerkinElmer Envision™ instrument for chemiluminescent signal detection.
The compound activity was analyzed using a CBIS data analysis suite (ChemInnovation, CA). For agonist mode assays, percentage activity was calculated using the following formula:
% Activity=100%×(mean RLU of test sample−mean RLU of vehicle control)/(mean MAX control ligand−mean RLU of vehicle control).

As for “Sar-RVYVHPA-miniPEG-K(PAL)GCRFGTCTVQKLAHQIYQFTDKDVAPRSKISPQGY-NH2 [SEQ ID NO: 234]”, the “CLR/RAMP1 Max Activity % of positive control” value at CLR/RAMP1 receptor is recorded as 132 % of positive control. For the same substance, the “CLR/RAMP2 Max Activity % of positive control” value at CLR/RAMP2 receptor was 86 % of positive control. Also, the “AGTR1 Max Activity (IC50 column pair)” value in experiment [1] was 104 % of positive controls.
